From patent publication US20250057751A1, “PEPTIDE HAVING ACTIVITY OF IMPROVING STATE OF SKIN, AND USE THEREOF” (CAREGEN CO., LTD., priority 2021, published 2025)

Columns and labels:
[1] = test system: NIH3T3 cells; test: Proliferation promoting effect on skin cells (SRB staining, absorbance at 560 nm); format: cell-based, mouse; conditions: 50 μM or 100 μM peptide, 72 hours, serum-free DMEM, FIG. 1A
Protocol: (§1) In this example, the aim was to confirm the effect of a peptide according to an example on proliferation of skin cells, by evaluating changes in survival rate of NIH3T3 cells, which are mouse fibroblasts, or HaCaT cells, which are human keratinocytes.
(§2) Specifically, NIH3T3 cells or HaCaT cells were seeded in a 96-well plate at a density of 5×10^3 cells/well and cultured for 24 hours. The cells were then washed once with serum-free DMEM media, and the culture medium was replaced with serum-free DMEM media. Then, 50 μM or 100 μM of the peptide consisting of the amino acid sequence of SEQ ID NO: 1 was dispensed into the medium, and cultured in a CO2 incubator at 37° C. for 72 hours. The culture was then washed twice with PBS and treated with 4% paraformaldehyde (PFA) solution for 15 minutes to fix the cultured cells. The culture was then washed twice with distilled water, treated with SRB solution for 1 hour to stain the cells, washed with 1% acetic acid solution, and dried. The dried culture was then dissolved in 20 mM Tris buffer solution and the absorbance at 560 nm was measured using a microplate reader (Molecular Devices, USA). In this example, the untreated group was used as the control group, and the group to which insulin-like growth factor was added (IGF) was used as the positive control group.

[2] = test system: HaCaT cells; test: as above; format: cell-based, human; conditions: 50 μM or 100 μM peptide, 72 hours, serum-free DMEM, FIG. 1B
Protocol: as §1, §2

[3] = test system: collagen type 1 (Col1a1); test: Expression of extracellular matrix constituent factor in NIH3T3 cells (RT-PCR); format: cell-based, mouse; conditions: 50 μM or 100 μM peptide, 24 hours, FIG. 2, FIG. 3A
Protocol: (§3) In this example, the aim was to confirm the effect of the peptide according to an example on improving endogenous skin aging, including improvement of wrinkles and enhancement of elasticity, etc., by evaluating the expression levels of collagen type 1 (Col1a1), fibronectin, or elastin, which are known components of the dermis.
(§4) Specifically, NIH3T3 cells were seeded in a 6-well plate at a density of 3×10^5 cells/well and cultured for 24 hours. The cells were then washed once with serum-free DMEM media, and the culture medium was replaced with serum-free DMEM media. Thereafter, 50 μM or 100 μM of the peptide consisting of the amino acid sequence of SEQ ID NO: 1 was dispensed into the medium, and cultured in a CO2 incubator at 37° C. for 24 hours. The culture was then washed twice with PBS, and RNA was isolated from the culture using easy blue (iNtRON, Korea). Using an RT kit (Enzynomics, Korea), 1 μg of the isolated RNA was reverse transcribed to synthesize the respective cDNA. Polymerase chain reaction (PCR) was then performed using the cDNAs and primers Col1a1, fibronectin, and elastin. Meanwhile, the untreated group was used as the control group, and the group to which TGF-β1 was added (TGF-β1) was used as the positive control group, the nucleotide sequences of the primers used in this example are shown in Table 2 below.

[4] = test system: elastin; test: as above; format: cell-based, mouse; conditions: 50 μM or 100 μM peptide, 24 hours, FIG. 2, FIG. 3C
Protocol: as §3, §4

[5] = test system: fibronectin; test: as above; format: cell-based, mouse; conditions: 50 μM or 100 μM peptide, 24 hours, FIG. 2, FIG. 3B
Protocol: as §3, §4

[6] = test system: aquaporin-3 (AQP3); test: Expression of skin barrier factor in HaCaT cells (RT-PCR); format: cell-based, human; conditions: 50 μM or 100 μM peptide, 24 hours, FIG. 4, FIG. 5B
Protocol: (§5) In this example, the aim was to confirm the effect of the peptides according to an example on skin barrier defense, by evaluating the expression levels of sirtuin-1 (SIRT-1) or aquaporin-3 (AQP3).
(§6) Specifically, HaCaT cells were seeded in a 6-well plate at a density of 3×10^5 cells/well and cultured for 24 hours. The cells were then washed once with serum-free DMEM media, and the culture medium was replaced with serum-free DMEM media. Thereafter, 50 μM or 100 μM of the peptide consisting of the amino acid sequence of SEQ ID NO: 1 was dispensed into the medium, and cultured in a CO2 incubator at 37° C. for 24 hours. The culture was then washed twice with PBS, and RNA was isolated from the culture using easy blue (iNtRON, Korea). Using the RT kit (Enzynomics, Korea), 1 ug of the isolated RNA was reverse transcribed to synthesize the respective cDNA. Polymerase chain reaction was then performed using the cDNAs and primers sirtuin-1and aquaporin-3. Meanwhile, the untreated group was used as the control group, and the group to which EGF was added (EGF) was used as the positive control group, the nucleotide sequences of the primers used in this example are shown in Table 3 below.

[7] = test system: sirtuin-1 (SIRT-1); test: as above; format: cell-based, human; conditions: 50 μM or 100 μM peptide, 24 hours, FIG. 4, FIG. 5A
Protocol: as §5, §6

[8] = test system: NIH3T3 cells; test: Inhibitory effect on apoptosis of skin cells induced by ultraviolet rays (survival rate, SRB); format: cell-based, mouse; conditions: 6 J/cm2 ultraviolet rays, 50 μM or 100 μM peptide, 72 hours, FIG. 6A
Protocol: (§7) In this example, the aim was to confirm the effect of the peptide according to an example on the inhibition of apoptosis or cell recovery of skin cells induced by ultraviolet rays, by evaluating the change in survival rate of skin cells whose apoptosis was induced by ultraviolet irradiation.
(§8) Specifically, NIH3T3 cells or HaCaT cells were seeded in a 96-well plate at a density of 1×10^4 cells/well and cultured for 24 hours. The cells were then washed once with serum-free DMEM media, the culture medium was replaced with serum-free DMEM media, and 50 μM or 100 μM of the peptide consisting of the amino acid sequence of SEQ ID NO: 1 was dispensed to the culture medium. The culture medium dispensed with the peptide was cultured in a CO2 incubator at 37° C. for 1 hour, transferred to an e-tube, mixed with 100 ul of PBS, and dispensed into a well plate. Afterwards, using a UV irradiator (VILBER LOURMAT, France), 6 J/cm2 ultraviolet rays were irradiated to NIH3T3 cells, and 15m J/cm2 ultraviolet rays were irradiated to HaCaT cells. The PBS in the well plate was then removed, 900 μL of the culture medium in which the peptides were dispensed was added, and the plate was cultured in a CO2 incubator at 37° C. for 72 hours. […] The dried culture was then dissolved in 20 mM Tris buffer solution and the absorbance at 560 nm was measured using a microplate reader (Molecular Devices, USA). […]

[9] = test system: HaCaT cells; test: as above; format: cell-based, human; conditions: 15m J/cm2 ultraviolet rays, 50 μM or 100 μM peptide, 72 hours, FIG. 6B
Protocol: as §7, §8

[10] = test system: NIH3T3 cells; test: Antioxidant effect on skin cells induced by ultraviolet rays (reactive oxygen species, flow cytometry); format: cell-based, mouse; conditions: 6 J/cm2 ultraviolet rays, 50 μM or 100 μM peptide, 24 hours, FIG. 7A
Protocol: (§9) In this example, the aim was to confirm the effect of the peptide according to an embodiment on the antioxidant effect of skin cells induced by ultraviolet rays, by evaluating the level of reactive oxygen species in skin cells increased by ultraviolet irradiation.
as §8, with “6-well” for “96-well”, “5×10^5” for “1×10^4”, “24” for “72”, “After washing” for “The dried culture was then dissolved in 20 mM Tris buffer solution and”, “centrifuged cells with PBS, FL1 fluorescence values were” for “absorbance at 560 nm was”, “through flow cytometry (FACS, BD,” for “using a microplate reader (Molecular Devices,”

[11] = test system: HaCaT cells; test: as above; format: cell-based, human; conditions: 15m J/cm2 ultraviolet rays, 50 μM or 100 μM peptide, 24 hours, FIG. 7B
Protocol: as §9
as §8, with “6-well” for “96-well”, “5×10^5” for “1×10^4”, “24” for “72”, “After washing” for “The dried culture was then dissolved in 20 mM Tris buffer solution and”, “centrifuged cells with PBS, FL1 fluorescence values were” for “absorbance at 560 nm was”, “through flow cytometry (FACS, BD,” for “using a microplate reader (Molecular Devices,”

## IHGTYKELLDTVTAP (Peptide 1) [SEQ ID NO: 1]
[1]
  proliferation of fibroblasts: promoted
[2]
  proliferation of keratinocytes: promoted
[3]
  expression of Col1a1: increased
[4]
  expression of elastin: increased
[5]
  expression of fibronectin: increased
[6]
  expression of AQP3: increased
[7]
  expression of SIRT-1: increased
[8]
  cell survival rate of fibroblasts reduced by ultraviolet irradiation: restored
[9]
  cell survival rate of keratinocytes reduced by ultraviolet irradiation: restored
[10]
  level of reactive oxygen species in fibroblasts increased by ultraviolet irradiation: reduced
[11]
  level of reactive oxygen species in keratinocytes increased by ultraviolet irradiation: reduced
